These results are taken from patent publication US7273880B2, “Selective NPY (Y5) antagonists” (H. Lunbeck A/S, priority 1999, dated 2007).

Data set [1] has as its target hNPY-1,2,4 (human Y1, Y2, Y4 receptors). The data set can be described thus: Radioligand binding to membranes, cloned human Y1, Y2 and Y4 receptors. Conditions: one bound given for all three. Here is the method:
Binding of the compounds of the present invention to human Y1, Y2, Y4, and Y5 receptors was evaluated using stably transfected 293 or LM(tk-) cells as described above. Stably transfected cell lines which may be used for binding assays include, for example, for the human Y1 receptor, 293-hY1-5 (deposited Jun. 4, 1996, under ATCC Accession No. CRL-12121), for the human Y2 receptor, 293-hY2-10 (deposited Jan. 27, 1994, under ATCC Accession No. CRL-11537), for the human Y4 receptor, L-hY4-3 (deposited Jan. 11, 1995, under ATCC Accession No. CRL-11779), and for human Y5 receptor, L-hY5-7 (deposited Nov. 15, 1995, under ATCC Accession No. CRL-11995). These cell lines were deposited with the American Type Culture Collection (ATCC), 10801 University Blvd., Manassas, Va. 20110-2209, U.S.A. under the provisions of the Budapest Treaty for the International Recognition of the Deposit of Microorganisms for the Purposes of Patent Procedure.
Membranes were harvested from COS-7 cells 48 hours after transient transfection. Adherent cells were washed twice in ice-cold phosphate buffered saline (138 mM NaCl, 8.1 mM Na2HPO4, 2.5 mM KCl, 1.2 mM KH2PO4, 0.9 mM CaCl2, 0.5 mM MgCl2, pH 7.4) and lysed by sonication in ice-cold sonication buffer (20 mM Tris-HCl, 5 mM EDTA, pH 7.7). Large particles and debris were cleared by low speed centrifugation (200×g, 5 min, 4° C.). Membranes were collected from the supernatant fraction by centrifugation (32,000×g, 18 min, 4° C.), washed with ice-cold hypotonic buffer, and collected again by centrifugation (32,000×g, 18 min, 4° C.). The final membrane pellet was resuspended by sonication into a small volume of ice-cold binding buffer (˜1 ml for every 5 plates: 10 mM NaCl, 20 mM HEPES, 0.22 mM KH2PO4, 1.26 mM CaCl2, 0.81 mM MgSO4, pH 7.4). Protein concentration was measured by the Bradford method (Bradford, 1976) using Bio-Rad Reagent, with bovine serum albumin as a standard. Membranes were held on ice for up to one hour and used fresh, or flash-frozen and stored in liquid nitrogen.
Membranes were prepared similarly from 293, LM(tk-), and NIH-3T3 cells. To prepare membranes from baculovirus infected cells, 2×10^7 Sf21 cells were grown in 150 mm tissue culture dishes and infected with a high-titer stock of hY5BB3. Cells were incubated for 2-4 days at 27° C., no CO2 before harvesting and membrane preparation as described above.
Membrane suspensions were diluted in binding buffer supplemented with 0.1% bovine serum albumin to yield an optimal membrane protein concentration so that ^125I-PYY (or alternative radioligand such as ^125I-NPY, ^125I-PYY3-36, or ^125I-[Leu^31Pro^34]PYY) bound by membranes in the assay was less than 10% of ^125I-PYY (or alternative radioligand) delivered to the sample (100,000 dpm/sample=0.08 nM for competition binding assays). ^125I-PYY (or alternative radioligand) and peptide competitors were also diluted to desired concentrations in supplemented binding buffer. Individual samples were then prepared in 96-well polypropylene microtiter plates by mixing 125I-PYY (25 μL) (or alternative radioligand), competing peptides or supplemented binding buffer (25 μL), and finally, membrane suspensions (200 μL). Samples were incubated in a 30° C. water bath with constant shaking for 120 min. Incubations were terminated by filtration over Whatman GF/C filters (pre-coated with 1% polyethyleneimine and air-dried before use), followed by washing with 5 mL of ice-cold binding buffer. Filter-trapped membranes were impregnated with MeltiLex solid scintillant (Wallac, Turku, Finland) and counted for ^125I in a Wallac Beta-Plate Reader. Alternatively, incubations were carried out in GF/C filter plates (pre-coated with 1% polyethyleneimine and air-dried before use), followed by vacuum filtration and three washes of 300 μL of ice-cold binding buffer. 50 μL of UltimaGold (Packard) scintillant were added and counted for ^125I in a Wallac MicroBeta Trilux. […]

The target in data set [2] is T1, human Y5 receptor (hNPY-5) (Homo sapiens, UniProt Q15761).
T1 construct: expressed in transfected cells; host or cells: mouse fibroblast LM(tk-) cells, e.g. L-hY5-7 (ATCC CRL-11995)
T1 sequence (Q15761 1-445): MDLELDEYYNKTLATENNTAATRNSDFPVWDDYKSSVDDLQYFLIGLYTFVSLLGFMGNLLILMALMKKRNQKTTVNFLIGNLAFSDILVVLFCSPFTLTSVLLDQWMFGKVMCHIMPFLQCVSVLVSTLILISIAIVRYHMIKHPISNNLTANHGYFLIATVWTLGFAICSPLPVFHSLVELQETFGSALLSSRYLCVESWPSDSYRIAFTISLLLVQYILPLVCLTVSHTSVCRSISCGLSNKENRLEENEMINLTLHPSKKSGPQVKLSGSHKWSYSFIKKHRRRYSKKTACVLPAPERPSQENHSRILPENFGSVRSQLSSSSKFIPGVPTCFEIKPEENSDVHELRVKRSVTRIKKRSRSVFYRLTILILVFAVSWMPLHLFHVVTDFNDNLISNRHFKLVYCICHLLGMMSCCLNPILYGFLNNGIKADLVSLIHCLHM
In words: Radioligand binding to membranes, cloned human Y5 receptor. Conditions: cloned human NPY Y5 receptor, radioligand competition binding; Tables 1-3; read-out: Ki, nM hNPY-5. In a few lines:
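Competition binding on membranes from stably transfected 293 or LM(tk-) cells, with 0.08 nM ¹²⁵I-PYY in pH 7.4 HEPES buffer plus 0.1% BSA, 120 min at 30 °C, filtration and counting. Nonspecific binding defined by 300 nM human NPY, or 100 nM human PP for Y4; nonlinear regression.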
(In general: Loss of bound radioactivity is the signal in a displacement assay; it reports binding, not function.)

As a reminder, the Ki is the dissociation constant of the complex between target and ligand, obtained from inhibition or displacement. A word on the melting point: it is the temperature, or range, at which the solid turns liquid.

`CCN(CC)S(=O)(=O)N[C@H]1CC[C@H](Nc2nc3c(s2)CCCc2ccc(F)cc2-3)CC1` [Example 35, trans-1-Aza-9-fluoro-4,5-dihydro-2-(4-diethylamino-sulfonylamino)cyclohexylamino-3-thia-benzo[e]azulene] returned a melting point of 172 to 174 °C. In addition, the Ki in data set [1] is more than 10000 nM. Moreover, the inhibition constant (Ki) in data set [2] turned out to be 6.5 nM.

For the compound `O=S(=O)(CC(F)(F)F)N[C@H]1CC[C@H](Nc2nc3c(s2)CCCc2ccc(F)cc2-3)CC1` [Example 38, trans-1-Aza-9-fluoro-4,5-dihydro-2-(4-(2,2,2-trifluoro-ethyl)sulfonylamino)cyclohexylamino-3-thia-benzo [e]azulene], the melting point lay in the range of 89 to 91 °C. In addition, the inhibition constant Ki in data set [1] is more than 10000 nM. For the same compound, in data set [2], the Ki was 15.8 nM.

In turn, `NS(=O)(=O)NC[C@H]1CC[C@H](Nc2nc3c(s2)CCOc2ccccc2-3)CC1` [Example 46, trans-N2-(4-Aminosulfonylaminomethyl)cyclohexyl-4,5-dihydro-benzo[2,3]oxepino[4,5-d][1,3]thiazol-2-amine] registered a melting point of 170 to 173 °C. In data set [1], this compound displayed an inhibitory constant (Ki) of more than 10000 nM. Further, in data set [2], the Ki worked out at 34 nM.

On to `Cn1cnc(S(=O)(=O)NCCCCCNc2nc3c(s2)CCCc2ccc(F)cc2-3)c1` [Example 23, 1-Aza-9-fluoro-4,5-dihydro-2-(5-(1-methylimidazol-4-yl)sulfonylamino)pentylamino-3-thia-benzo[e]azulene], for which the melting point was 50 to 53 °C. The compound also had an inhibition constant (Ki) in data set [1] of more than 10000 nM. In addition, the inhibition constant Ki in data set [2] was determined as 15.5 nM.

As to `O=S(=O)(NCCCCCNc1nc2c(s1)CCCc1ccc(F)cc1-2)c1cccs1` [Example 19, 1-Aza-9-fluoro-4,5-dihydro-2-(5-(2-thienyl)-sulfonylamino)-pentylamino-3-thia-benzo[e]azulene], the melting point lay within 152 to 154 °C. In data set [1], this compound gave a Ki of more than 10000 nM. Further, in data set [2], the Ki is 5 nM.

On to `COC[C@@H]1CCCN1S(=O)(=O)c1ccc(Nc2nc3c(s2)CCCc2ccc(F)cc2-3)cc1` [Example 9, 1-Aza-9-fluoro-4,5-dihydro-2-(4-((2(S)-methoxy-methyl)-pyrrolidine-1-yl)sulfonyl)phenylamino-3-thia-benzo[e]azulene], for which the melting point is 186 to 188 °C. In data set [1], the Ki was more than 10000 nM. The inhibition constant Ki in data set [2] stood at 15.4 nM.

`CCN(CC)S(=O)(=O)NCCCCNc1nc2c(s1)CCSc1ccccc1-2` [Example 104, N′-[4-(4,5-Dihydrobenzo[2,3]thiepino[4,5-d][1,3]thiazol-2-ylamino)butyl]-N,N-diethylsulfamide]: the Ki is more than 10000 nM in data set [1] and 3.2 nM in data set [2].

As for `O=S(=O)(Cc1ccccc1)NC[C@H]1CC[C@H](Nc2nc3c(s2)CCCc2ccc(F)cc2-3)CC1` [Example 29, trans-1-Aza-2-{4-benzylsulfonylaminomethyl}-cyclohexylamino-9-fluoro-4,5-dihydro-3-thia-benzo[e]-azulene], the Ki in data set [1] is more than 10000 nM; in data set [2], 10.3 nM.

For the compound `O=S(=O)(N[C@H]1CC[C@H](Nc2nc3c(s2)CCCc2ccc(F)cc2-3)CC1)c1cccnc1` [Example 54, trans-1-Aza-9-fluoro-4,5-dihydro-2-(4-(3-pyridyl-sulfonylamino)cyclohexyl)amino-3-thia-benzo[e]azulene], the Ki in data set [1] is more than 10000 nM; in data set [2], 11.9 nM.

On to `O=S(=O)(NCCCCNc1nc2c(s1)CCCc1ccc(F)cc1-2)c1ccccc1F` [Example 7, 1-Aza-9-fluoro-2-(4-(2-fluorophenyl)sulfonylamino)-butylamino-4,5-dihydro-3-thia-benzo[e]azulene], for which the values for the Ki in data set [1] and in data set [2] were more than 10000 nM and 23 nM, respectively.

For the compound `O=S(=O)(NC[C@H]1CC[C@H](Nc2nc3c(s2)CCCc2ccc(F)cc2-3)CC1)c1c(F)cccc1F` [Example 28, trans-N2-(4-(2,6-Difluorophenylsulfonyl)aminomethyl)-cyclohexyl-9-fluoro-5,6-dihydro-4H-benzo[6,7]-cyclohepta-[d][1,3]-thiazol-2-amine], the figures for the Ki in data set [1] and in data set [2] were more than 10000 nM and 4 nM, respectively.

`CS(=O)(=O)NCCCCCNc1nc2c(s1)CCCc1ccc(F)cc1-2` [Example 10, 1-Aza-9-fluoro-4,5-dihydro-2-(5-(methylsulfonyl-amino)-pentyl)amino-3-thia-benzo [e]azulene]: the Ki in data set [1] was more than 10000 nM; in data set [2], 2.4 nM.

With `Cc1noc(C)c1S(=O)(=O)NCCCCCNc1nc2c(s1)CCCc1ccc(F)cc1-2` [Example 24, 1-Aza-9-fluoro-4,5-dihydro-2-(5-(3,5-dimethyl-isoxazol-4-yl)sulfonylamino)pentylamino-3-thia-benzo[e]azulene], the inhibition constant (Ki) was more than 10000 nM in data set [1] and 3.5 nM in data set [2].

Take `CC(C)(C)OC(=O)NCCCCCNc1nc2c(s1)CCSc1ccc(F)cc1-2` [Example 105, tert-Butyl N-{5-[(9-fluoro-4,5-dihydrobenzo[2,3]-thiepino[4,5-d][1,3]thiazol-2-yl)amino]pentyl}-carbamate]: the Ki in data set [1] is more than 10000 nM; in data set [2], 91 nM.

On to `CCN(CC)S(=O)(=O)NCCCCCNc1nc2c(s1)CCCc1ccc(F)cc1-2` [Example 14, 1-Aza-9-fluoro-4,5-dihydro-2-(5-(diethyl-aminosulfonyl-amino)pentyl)amino-3-thia-benzo[e]-azulene], for which the inhibitory constant (Ki) in data set [1] is more than 10000 nM; in data set [2], 2.1 nM.

Consider `COc1ccc(S(=O)(=O)NCCCCCNc2nc3c(s2)CCCc2ccc(F)cc2-3)cc1` [Example 18, 1-Aza-9-fluoro-4,5-dihydro-2-(5-(4-methoxyphenyl)-sulfonylamino)pentylamino-3-thia-benzo[e]azulene], for which the Ki was more than 10000 nM in data set [1] and 7.1 nM in data set [2].

Regarding `CCS(=O)(=O)NC[C@H]1CC[C@H](Nc2nc3c(s2)CCCc2ccc(F)cc2-3)CC1` [Example 31, trans-N2-(4-Ethylsulfonylaminomethyl)cyclohexyl-9-fluoro-5,6-dihydro-4H-benzo[6,7]cyclohepta[d][1,3]-thiazol-2-amine], the inhibition constant (Ki) in data set [1] was more than 10000 nM; in data set [2] it was 3.9 nM.
